What all share (format): in vivo
Test [1] has as its system Erysiphe graminis f. sp. tritici. The test is described as follows: Test E: wheat powdery mildew, spray the day before inoculation (disease rating, 100 = 100% disease control). The following applies: spray the day before inoculation, compounds without asterisk (not 40 or 10 ppm). In a few lines: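 Wheat seedlings sprayed to run-off with compound suspended in acetone/water 50/50 with 250 ppm Trem 014 (200 ppm equivalent to 500 g/ha); inoculated next day with Erysiphe graminis f. sp. tritici spore dust. Kept 7 days at 20° C, then rated 0–100% disease control versus controls.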

Test [2] deals with Pseudoperonospora cubensis. The test is described as follows: Test F: cucumber downy mildew, DMSO/acetone/water test suspension, spray the day before inoculation (disease rating, 100 = 100% disease control). The following applies: DMSO/acetone/water suspension, spray the day before inoculation, compounds without asterisk. From the text:
The test compounds were first dissolved in dimethyl sulfoxide (DMSO) in an amount equal to 4% of the final volume and then suspended at the desired concentration (in ppm) in acetone and purified water (30/70 mix by volume). The resulting test suspensions were then used in test F. Spraying a 250 ppm test suspension on the test plants was the equivalent of a rate of 250 g/ha.
The test suspension was sprayed on cucumber seedlings. The following day the seedlings were inoculated with a spore suspension of Pseudoperonospora cubensis (the causal agent of cucumber downy mildew) and incubated in a saturated atmosphere at 20° C. for 24 h, and then moved to a growth chamber at 20° C. for 6 days, after which disease ratings were made.
Results for Tests A-F are given in Table A. In the table, a rating of 100 indicates 100% disease control and a rating of 0 indicates no disease control (relative to the controls). A dash (-) indicates no test results.

Test [3] concerns Phytophthora infestans. The test is described as follows: whole plant or invertebrate. The following applies: tomato late blight; spray the day before inoculation; compounds without asterisk (not 40 or 10 ppm).
Test [4] has as its system Phytophthora infestans. The test is described as follows: whole plant or invertebrate. The following applies: tomato late blight; spray 17 h after inoculation; compounds without asterisk (not 40 or 10 ppm).
Test [5] relates to Plasmopara viticola. The test is described as follows: Test B: grape downy mildew, spray 24 h after inoculation (disease rating, 100 = 100% disease control). The following applies: spray 24 h after inoculation, compounds without asterisk (not 40 or 10 ppm). A digest of the protocol:
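Grape seedlings were inoculated with Plasmopara viticola and held 24 h saturated at 20 °C, then sprayed to run-off with compound suspension (acetone/water with 250 ppm Trem 014; 200 ppm ≈ 500 g/ha). After 5 days at 20 °C and 24 h saturation, disease was rated from 0 to 100% control versus untreated.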

From US8586611B2 (priority 2005, dated 2013) come the findings set out here.

Turning to `Cc1ccc(C)c(CC(=O)N2CCC(c3nc(C(=O)N(C)[C@H](C)c4cccc(C(F)(F)F)c4)cs3)CC2)c1` [compound 67], the “Test E disease rating (100 = 100% disease control, 0 = no disease control)” value in test [1] was 0%. Further, the “Test F disease rating (100 = 100% disease control, 0 = no disease control)” value in test [2] came to 99%. Further, the “Test C disease rating (100 = 100% disease control, 0 = no disease control)” value in test [3] came to 68%. Further, the “Test D disease rating (100 = 100% disease control, 0 = no disease control)” value in test [4] is given as 0%. Further, the “Test B disease rating (100 = 100% disease control, 0 = no disease control)” value in test [5] is recorded as 10%.
Turning to `Cc1ccc(C)c(CC(=O)N2CCC(c3nc(C(=O)N(C)[C@@H](C)c4ccccc4)cs3)CC2)c1` [compound 68], the “Test E disease rating (100 = 100% disease control, 0 = no disease control)” value in test [1] is 0%. The “Test F disease rating (100 = 100% disease control, 0 = no disease control)” value in test [2] was 95%. The “Test C disease rating (100 = 100% disease control, 0 = no disease control)” value in test [3] is on record as 100%. In addition, the “Test D disease rating (100 = 100% disease control, 0 = no disease control)” value in test [4] was determined as 16%. In addition, the “Test B disease rating (100 = 100% disease control, 0 = no disease control)” value in test [5] amounted to 47%.
Consider `COc1cccc([C@@H](C)N(C)C(=O)c2csc(C3CCN(C(=O)Cc4cc(C)ccc4C)CC3)n2)c1` [compound 69], for which the “Test E disease rating (100 = 100% disease control, 0 = no disease control)” value in test [1] was 29%. Also, in test [2], the “Test F disease rating (100 = 100% disease control, 0 = no disease control)” value was found to be 100%. The “Test C disease rating (100 = 100% disease control, 0 = no disease control)” value in test [3] is recorded as 100%. In addition, the “Test D disease rating (100 = 100% disease control, 0 = no disease control)” value in test [4] is listed as 0%. Besides, the “Test B disease rating (100 = 100% disease control, 0 = no disease control)” value in test [5] came out at 88%.
In the case of `CC(c1ccccn1)N(C)C(=O)c1csc(C2CCN(C(=O)Cc3cccc(C(F)(F)F)c3)CC2)n1` (stereo not shown) [compound 75], the “Test E disease rating (100 = 100% disease control, 0 = no disease control)” value in test [1] is 0%. The “Test F disease rating (100 = 100% disease control, 0 = no disease control)” value in test [2] turned out to be 0%. The “Test C disease rating (100 = 100% disease control, 0 = no disease control)” value in test [3] turned out to be 100%. For the same molecule, the “Test D disease rating (100 = 100% disease control, 0 = no disease control)” value in test [4] was 72%. Moreover, the “Test B disease rating (100 = 100% disease control, 0 = no disease control)” value in test [5] is reported as 16%.
Consider `C[C@H](c1ccccc1)N(C)C(=O)c1csc(C2CCN(C(=O)Cc3cc(Cl)ccc3Cl)CC2)n1` [compound 77], for which, in test [1], the “Test E disease rating (100 = 100% disease control, 0 = no disease control)” value is listed as 88%. Further, the “Test F disease rating (100 = 100% disease control, 0 = no disease control)” value in test [2] was found to be 50%. In test [3], the “Test C disease rating (100 = 100% disease control, 0 = no disease control)” value turned out to be 100%. The “Test D disease rating (100 = 100% disease control, 0 = no disease control)” value in test [4] stood at 100%. For the same molecule, the “Test B disease rating (100 = 100% disease control, 0 = no disease control)” value in test [5] is recorded as 100%.
Turning to `Cc1ccc(F)cc1CC(=O)N1CCC(c2nc(C(=O)N(C)[C@H](C)c3ccccc3)cs2)CC1` [compound 80], in test [1], the “Test E disease rating (100 = 100% disease control, 0 = no disease control)” value is 29%. In addition, the “Test F disease rating (100 = 100% disease control, 0 = no disease control)” value in test [2] worked out at 49%. Further, the “Test C disease rating (100 = 100% disease control, 0 = no disease control)” value in test [3] came to 100%. The “Test D disease rating (100 = 100% disease control, 0 = no disease control)” value in test [4] was determined as 70%. For the same molecule, the “Test B disease rating (100 = 100% disease control, 0 = no disease control)” value in test [5] came out at 99%.
On the same counts, the results for `COc1ccc(Br)cc1CC(=O)N1CCC(c2nc(C(=O)N(C)[C@H](C)c3ccccc3)cs2)CC1` [compound 81] are 0%, 50%, 100%, 100% and 100%.
As for `CCCC(c1ccccc1)N(C)C(=O)c1csc(C2CCN(C(=O)Cc3cc(C)ccc3C)CC2)n1` (stereo not shown) [compound 82], the “Test E disease rating (100 = 100% disease control, 0 = no disease control)” value in test [1] is 55%. Also, the “Test F disease rating (100 = 100% disease control, 0 = no disease control)” value in test [2] is on record as 93%. Also, the “Test C disease rating (100 = 100% disease control, 0 = no disease control)” value in test [3] is 97%. Also, the “Test D disease rating (100 = 100% disease control, 0 = no disease control)” value in test [4] came out at 53%. The “Test B disease rating (100 = 100% disease control, 0 = no disease control)” value in test [5] turned out to be 100%.
